Measured values taken from patent US20080200531A1, “CDKI pathway inhibitors as inhibitors of tumor cell growth” (priority 2006, published 2008).

Key:
[1] = tested on: CDKI-responsive endogenous genes induced by p21; assay: Q-PCR of CDKI-responsive endogenous genes, HT1080 cells with IPTG-inducible p21; type: cell-based, human; details: 10 μM SNX9, 20 μM SNX9-1; normalized to β-actin
Experimental: For this purpose, we developed real-time RT-PCR (Q-PCR) assays for measuring RNA levels of eleven CDKI-responsive genes. This assay uses a 96-well TurboCapture RNA extraction kit (Qiagen), in which oligo(dT) is covalently bound to the surface of the wells to allow mRNA isolation from cell lysate and cDNA synthesis in the same wells. 5 units/μl of SuperScript III reverse transcriptase (Invitrogen) was added to the wells for 1 hr for cDNA synthesis at 50° C., and 2 μl of the resulting cDNA was then used for Q-PCR analysis using SYBR Green PCR Master Mix (ABI) with ABI 7900HT Q-PCR machine.
This effect argues that the molecular target of these compounds is not a specific CDKI but rather a common downstream mediator of the transcription-inducing effects of different CDKI.

[2] = biological target: CDK2/cyclinA (h), CDK2/cyclinE (h); assay: Cyclin/CDK kinase assay (Upstate), CDK2/cyclinA and CDK2/cyclinE; type: biochemical, human; details: 100 μM, re-tested at 20 and 40 μM (SNX9, SNX2) or 10 and 20 μM (SNX9-1, SNX14)
Experimental: (§1) To test the above hypothesis, we determined whether several CDKI pathway inhibitors, including two SNX9 class compounds (SNX9 and SNX9-1), two compounds of a different structural class (SNX14 and SNX2) and another unrelated inhibitor (SNX35), inhibit the kinase activity of different complexes formed in vitro by purified cyclin/CDK complexes. This analysis was carried out as a service by Upstate Biotechnology, Inc.
(§2) In a final reaction volume of 25 μl, CDK2/cyclinA (h) (5-10 mU) is incubated with 8 mM MOPS pH 7.0, 0.2 mM EDTA, 0.1 mg/ml histone H1, 10 mM MgAcetate and [γ-33P-ATP] (specific activity approx. 500 cpm/pmol, 45 μM concentration). The reaction is initiated by the addition of the MgATP mix. After incubation for 40 minutes at room temperature, the reaction is stopped by the addition of 5 μl of a 3% phosphoric acid solution. 10 μl of the reaction is then spotted onto a P30 filtermat and washed three times for 5 minutes in 75 mM phosphoric acid and once in methanol prior to drying and scintillation counting.
In a final reaction volume of 25 μl, CDK2/cyclinE (h) (5-10 mU) is incubated with 8 mM MOPS pH 7.0, 0.2 mM EDTA, 0.1 mg/ml histone H1, 10 mM MgAcetate and [γ-33P-ATP] (specific activity approx. 500 cpm/pmol, 120 μM concentration). The reaction is initiated by the addition of the MgATP mix. […]

[3] = biological target: T1, CDK3/cyclinE (h) (Homo sapiens, UniProt Q00526); assay: Cyclin/CDK kinase assay (Upstate), CDK3/cyclinE; type: biochemical; details: 100 μM, re-tested at 20 and 40 μM (SNX9, SNX2) or 10 and 20 μM (SNX9-1, SNX14)
T1 construct: purchased Upstate Biotechnology, Inc
Experimental: as §1
as §2, with “CDK3/cyclinE” for “CDK2/cyclinA”, “mg/ml” for “mg/ml histone”, “200” for “45”
(§3) At the first step, all the compounds were tested at 100 μM concentration. […] For SNX14 and SNX2, the relative efficacy of inhibition was CDK1>CDK2˜CDK3>CDK6. For SNX9 and SNX9-1, the order was CDK3>CDK1>CDK2>CDK6 (FIG. 12).

[4] = biological target: T2, CDK6/cyclinD3 (h) (Homo sapiens, UniProt Q00534); assay: Cyclin/CDK kinase assay (Upstate), CDK6/cyclinD3; type: biochemical; details: 100 μM, re-tested at 20 and 40 μM (SNX9, SNX2) or 10 and 20 μM (SNX9-1, SNX14)
T2 construct: purchased Upstate Biotechnology, Inc
Experimental: as §1
as §2, with “μl, CDK6/cyclinD3” for “μl, CDK2/cyclinA”, “0.2 mm” for “0.2 mM”, “mg/ml” for “mg/ml histone”, “cpm/pmol, 200” for “cpm/pmol, 45”
as §3

T1 sequence (Q00526 whole entry): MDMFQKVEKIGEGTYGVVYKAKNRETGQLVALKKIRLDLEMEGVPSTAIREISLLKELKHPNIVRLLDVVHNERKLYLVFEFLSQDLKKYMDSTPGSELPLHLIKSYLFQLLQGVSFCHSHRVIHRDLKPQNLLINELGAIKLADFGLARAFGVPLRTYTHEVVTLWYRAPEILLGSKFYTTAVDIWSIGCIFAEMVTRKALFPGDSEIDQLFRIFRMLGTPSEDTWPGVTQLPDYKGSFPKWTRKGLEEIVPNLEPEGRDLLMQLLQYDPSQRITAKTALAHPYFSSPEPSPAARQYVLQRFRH
T1 sequence (P24864 whole entry partner): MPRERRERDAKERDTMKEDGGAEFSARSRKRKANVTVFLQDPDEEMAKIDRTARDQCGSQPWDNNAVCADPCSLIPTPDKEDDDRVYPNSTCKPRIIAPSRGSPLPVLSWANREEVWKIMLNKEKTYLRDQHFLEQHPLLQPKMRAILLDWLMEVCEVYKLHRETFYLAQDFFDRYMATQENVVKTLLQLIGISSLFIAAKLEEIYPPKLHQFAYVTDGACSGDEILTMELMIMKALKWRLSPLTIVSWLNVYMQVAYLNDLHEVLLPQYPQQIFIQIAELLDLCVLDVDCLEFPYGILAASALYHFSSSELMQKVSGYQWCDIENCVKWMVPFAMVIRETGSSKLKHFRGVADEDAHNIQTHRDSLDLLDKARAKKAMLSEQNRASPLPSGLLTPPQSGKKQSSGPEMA
T2 sequence (Q00534 whole entry): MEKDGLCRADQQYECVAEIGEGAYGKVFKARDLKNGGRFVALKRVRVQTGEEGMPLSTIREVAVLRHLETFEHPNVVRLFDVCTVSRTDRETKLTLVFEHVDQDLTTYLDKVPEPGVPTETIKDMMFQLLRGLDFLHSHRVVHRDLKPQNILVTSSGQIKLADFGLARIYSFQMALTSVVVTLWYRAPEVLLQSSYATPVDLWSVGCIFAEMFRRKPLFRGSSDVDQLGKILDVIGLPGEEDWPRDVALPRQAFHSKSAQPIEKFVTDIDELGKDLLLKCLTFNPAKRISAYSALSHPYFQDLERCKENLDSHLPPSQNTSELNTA
T2 sequence (P30281 whole entry partner): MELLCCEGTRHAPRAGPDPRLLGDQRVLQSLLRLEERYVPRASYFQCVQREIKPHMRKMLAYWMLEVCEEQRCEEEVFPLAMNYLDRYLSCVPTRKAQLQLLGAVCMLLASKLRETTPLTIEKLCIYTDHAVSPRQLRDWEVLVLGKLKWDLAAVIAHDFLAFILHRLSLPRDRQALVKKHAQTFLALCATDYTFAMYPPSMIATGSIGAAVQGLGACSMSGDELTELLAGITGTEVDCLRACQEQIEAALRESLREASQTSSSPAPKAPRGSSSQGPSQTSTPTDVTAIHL

Row | SMILES | induction of CDKI-responsive endogenous genes by p21 (ratio of RNA levels with and without IPTG) [1] | kinase activity of CDK2 [2] | kinase activity of CDK3 [3] | kinase activity of CDK6 [4]
1 | Cc1[nH]c2c(Cl)cccc2c1CCN [SNX9] | partially inhibit the induction of all the tested genes | inhibited the kinase activities | inhibited the kinase activities | inhibited the kinase activities
2 | NCCc1c[nH]c2c(Cl)cc(Cl)cc12 [SNX9-1] | partially inhibit the induction of all the tested genes | inhibited the kinase activities | inhibited the kinase activities | inhibited the kinase activities
